A word on the pIC50: it is the negative decadic logarithm of the IC50, by convention in mol/L.

For this assay, the target named is T1, human serotonin transporter (hSERT) (Homo sapiens, UniProt P31645).
T1 construct: expressed in transfected cells; host or cells: HEK-293 (stably transfected)
The assay is described as follows: inhibition of 3H-serotonin uptake in HEK-293 cells expressing hSERT. It counts as cell-based. The settings on record: HEK-293 cells with hSERT, 3H-5HT 50 nM, 5 min incubation; read-out: serotonin re-uptake inhibition (SRI) IC50. As to the method: A number of compounds were tested for biological activity by their ability to inhibit the uptake of serotonin by human serotonin transporters as follows.
Human embryonic kidney cells (HEK-293) stably transfected with either the human serotonin transporter (hSERT), noradrenaline transporter (hNET) or dopamine transporter (hDAT) were cultured under standard cell culture techniques (cells were grown at 37° C. and 5% CO2 in DMEM-culture media (supplemented with 10% dialysed foetal calf serum (FCS), 2 mM I-glutamine and 250 μg/ml geneticin)). Cells were harvested for the assay to yield a cell suspension of 750,000 cells/ml.
All test compounds were dissolved in 100% DMSO and diluted down in assay buffer to give appropriate test concentrations. Assays were carried out in 96-well filter bottom plates. Cells (7500 cells/assay well) were pre-incubated in standard assay buffer containing either test compound, standard inhibitor or compound vehicle (1% DMSO) for 5 minutes. Reactions were started by addition of either ^3H-Serotonin, ^3H-Noradrenaline or ^3H-Dopamine substrates. All reactions were carried out at room temperature in a shaking incubator. Incubation times were 5 minutes for the hSERT and hDAT assays and 15 minutes for the hNET assay. Reactions were terminated by removal of the reaction mixture using a vacuum manifold followed by rapid washing with ice cold assay buffer. The quantity of ^3H-substrate incorporated into the cells was then quantified.
Assay plates were dried in a microwave oven, scintillation fluid added, and radioactivity measured. Potency of test compounds was quantified as IC50 values (concentration of test compound required to inhibit the specific uptake of radiolabelled substrate into the cells by 50%).

pIC50: −log10 of the molar value. Where “and” joins values, the source holds several entries; their conditions need not be identical. Equal entries are not always repeated. Structures can show the parent of a compound that is named as a salt. Some results are limits rather than exact numbers.

T1 sequence (P31645 whole entry): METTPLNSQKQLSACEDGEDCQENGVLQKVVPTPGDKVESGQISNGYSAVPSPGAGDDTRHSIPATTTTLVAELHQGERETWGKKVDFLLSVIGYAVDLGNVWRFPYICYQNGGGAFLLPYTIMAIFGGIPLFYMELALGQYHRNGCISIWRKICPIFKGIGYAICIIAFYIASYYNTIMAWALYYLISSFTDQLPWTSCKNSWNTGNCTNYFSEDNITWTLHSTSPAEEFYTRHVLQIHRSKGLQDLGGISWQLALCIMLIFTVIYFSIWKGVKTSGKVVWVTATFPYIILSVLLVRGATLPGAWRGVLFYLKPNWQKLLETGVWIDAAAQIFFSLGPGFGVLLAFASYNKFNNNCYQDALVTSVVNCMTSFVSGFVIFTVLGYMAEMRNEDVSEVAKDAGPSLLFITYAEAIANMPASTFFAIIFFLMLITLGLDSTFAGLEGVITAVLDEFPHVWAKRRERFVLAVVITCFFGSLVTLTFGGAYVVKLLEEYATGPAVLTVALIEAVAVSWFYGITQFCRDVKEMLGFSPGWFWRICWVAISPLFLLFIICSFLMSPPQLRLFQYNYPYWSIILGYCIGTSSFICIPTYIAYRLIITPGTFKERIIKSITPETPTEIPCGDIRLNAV

In the case of `CNS(=O)(=O)c1ccc(Oc2ccc(SC)cc2)c(C2CCCN2)c1` (single isomer, unassigned) [Example 11, N-methyl-4-[4-(methylsulfanyl)phenoxy]-3-(2-pyrrolidinyl)benzenesulfonamide], the pIC50 was ≥ 7.00 and ≥ 7.30 and 8.23.

With `CSc1ccc(Oc2ccc(S(N)(=O)=O)cc2C2CCCN2)cc1` (single isomer, unassigned; (+)) [Example 7, (+)4-[4-(Methylsulfanyl)phenoxy]-3-(2-pyrrolidinyl)benzenesulfonamide hydrochloride], the pIC50 was ≥ 7.00 and ≥ 7.30 and 8.27.

Consider `CS(=O)(=O)Nc1ccc(Oc2ccc(OC(F)(F)F)cc2)c(C2CCCN2)c1` (single isomer, unassigned; (+)) [Example 22, (+) N-{3-(2-pyrrolidinyl)-4-[4-(trifluoromethoxy)phenoxy]phenyl}-methanesulfonamide], for which the negative-log IC50 (pIC50) is at least 7.30.

Take `CS(=O)(=O)Nc1ccc(Oc2ccc(OC(F)(F)F)cc2)c(C2CCCN2)c1` (single isomer, unassigned) [Example 21]: the negative logarithm of the IC50 (pIC50) was 7.89.

For the origin of these results see US6630504B2, “Phenoxyphenylheterocyclyl derivatives as SSRIs” (Pfizer Inc., priority 2000, dated 2003).
